Assays:
[1] = target: T1, Akt1 (Homo sapiens, UniProt P31749); assay: Akt activation assay (PDK1-mediated activation, LANCE Ultra crosstide TR-FRET), Akt1; format: biochemical; details: read-out: Biological Assay 1 IC50 (nM) Akt1
T1 construct: unspecified tag, removed (detagged) (cleaved yes); purchased SignalChem and Proteros (Akt1); Merck Millipore (PDK1) 14-452 (PDK1); none given for Akt1
Procedure: (§1) Biological Assay 1: Akt Activation Assay
(§2) Addition of a Europium-labelled antibody specific to the phosphopeptide allows energy transfer from the Europium donor to the Ultra Ulight™ acceptor if close enough in proximity.
(§3) Full length active His6-tagged PDK1 was obtained from Merck Millipore (14-452).
(§4) 1× assay buffer (AB): 50 mM HEPES pH 7.5, 1 mM EGTA, 10 mM MgCl2, 0.01% Tween. Immediately before use, DTT to a concentration of 2 mM was added.
(§5) To prepare lipid vesicles: 1 mg/ml PtdIns(3,4,5)P3 solution (in 10 mM HEPES 7.5) was added to 16.7 mg/ml DOPS/DOPC mixture (in 10 mM HEPES pH 7.5) in a ratio of 1:8.3. MilliQ water was added to the solution to generate concentrations of 400 μM DOPS, 400 μM DOPC and 40 μM PtdIns(3,4,5)P3. The mixture was subjected to 5× freeze/thaw cycles and aliquots stored at −20° C.
(§6) 5 μL enzyme in 1×AB was incubated with 2.5 μL test compound. To start the reaction 2.5 μL reaction mix was added which consisted of PDK1, lipid preparations, crosstide and ATP in 1×AB. Final assay concentrations were as follows: 1% DMSO, 5 nM SignalChem Akt1/15 nM SignalChem Akt2/3 nM Signalchem Akt3/5 nM Proteros Akt1/5 nM proteros Akt2/5 nM Proteros Akt3, 5 nM PDK1, 5.5 μM DOPS, 5.5 μM DOPC, 0.55 μM PtdIns(3,4,5)P3, 100 μM ATP, 100 nM LANCE® Ultra Ulight™-Crosstide. After 30 min, the reaction was stopped using 5 μL 40 μM EDTA in 1× Detection buffer for 5 min. For detection, 5 μL 8 nM LANCE® Ultra Europium-anti-phospho-Crosstide antibody in 1× Detection buffer was added to each well and incubated for 1 h. Plates read with the EnVision® Multilabel Plate Reader, excitation at 320 nm and emission at 665 nm and 615 nm. Compound IC50 was determined using a 4-parameter equation.

[2] = target: T2, Akt2 (Homo sapiens, UniProt P31751); assay: Akt activation assay (PDK1-mediated activation, LANCE Ultra crosstide TR-FRET), Akt2; format: biochemical; details: read-out: Biological Assay 1 IC50 (nM) Akt2
T2 construct: unspecified tag, removed (detagged) (cleaved yes); purchased SignalChem and Proteros (Akt2); Merck Millipore (PDK1) 14-452 (PDK1); none given for Akt2
T2 sequence (P31751 whole entry): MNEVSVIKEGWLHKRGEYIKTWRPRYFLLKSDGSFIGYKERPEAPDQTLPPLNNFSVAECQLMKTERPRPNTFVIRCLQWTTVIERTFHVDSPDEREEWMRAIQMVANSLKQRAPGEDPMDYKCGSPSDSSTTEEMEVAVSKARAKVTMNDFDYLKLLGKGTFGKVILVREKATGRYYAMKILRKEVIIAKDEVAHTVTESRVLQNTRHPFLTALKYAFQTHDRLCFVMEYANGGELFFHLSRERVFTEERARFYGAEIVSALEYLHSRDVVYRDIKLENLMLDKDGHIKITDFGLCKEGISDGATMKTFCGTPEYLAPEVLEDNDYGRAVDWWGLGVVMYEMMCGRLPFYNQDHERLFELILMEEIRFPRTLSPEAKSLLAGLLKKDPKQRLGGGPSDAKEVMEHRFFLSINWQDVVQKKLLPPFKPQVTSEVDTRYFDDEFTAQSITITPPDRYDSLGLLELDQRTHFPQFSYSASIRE
Procedure: as §1, §2, §3, §4, §5, §6

[3] = target: T3, p-Akt3 in WM115 cells (Homo sapiens, UniProt Q9Y243); assay: Phospho-Akt cellular SureFire assay, p-Akt3 in WM115 cells; format: cell-based; details: insulin stimulated, read-out: Biological Assay 2 IC50 (nM) Akt3 WM115
T3 construct: SureFire assays to detect cellular p-Akt1, p-Akt2 and p-Akt3 levels in WM115 cells (Akt2/3) and LNCaP cells (Akt1); endogenous in cells; host or cells: WM115 (ECACC 91061232), insulin-stimulated
T3 sequence (Q9Y243 whole entry): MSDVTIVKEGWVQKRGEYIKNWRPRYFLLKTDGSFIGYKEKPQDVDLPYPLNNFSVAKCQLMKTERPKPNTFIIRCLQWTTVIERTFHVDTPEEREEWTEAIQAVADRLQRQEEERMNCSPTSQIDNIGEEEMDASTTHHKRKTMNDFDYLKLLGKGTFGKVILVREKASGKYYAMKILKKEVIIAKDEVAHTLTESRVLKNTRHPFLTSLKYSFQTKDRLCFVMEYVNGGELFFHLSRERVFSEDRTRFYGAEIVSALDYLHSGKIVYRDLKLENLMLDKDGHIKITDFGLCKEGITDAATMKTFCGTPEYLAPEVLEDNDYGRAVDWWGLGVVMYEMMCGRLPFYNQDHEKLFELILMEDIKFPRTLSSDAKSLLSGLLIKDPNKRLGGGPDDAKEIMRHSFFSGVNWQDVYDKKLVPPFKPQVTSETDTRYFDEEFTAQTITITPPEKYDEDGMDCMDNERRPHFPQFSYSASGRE
From the text: (§7) Biological Assay 2: Phospho-Akt (p-Akt) Cellular SureFire Assays
(§8) The following describes SureFire assays to detect cellular p-Akt1, p-Akt2 and p-Akt3 levels in WM115 cells (Akt2/3) and LNCaP cells (Akt1). In the case of Akt2 and Akt3, Streptavidin-coated donor beads capture a biotinylated anti-mouse antibody that in turn recognises a mouse total Akt antibody which is specific to each isoform. The protein A-conjugated acceptor beads capture an antibody that recognises the phosphoprotein. Similarly in the Akt1 kit, the donor and acceptor beads are used to capture each antibody pair consisting of an antibody that specifically recognises Akt1 as well as an antibody that recognises the phosphoprotein. In each case, close proximity of the beads allows energy transfer from donor to acceptor.
(§9) Custom kit from TGR/Perkin Elmer for Akt2/3 containing anti-(pThr308)Akt antibody and biotinylated anti-mouse capture antibody.
Total Akt3 antibody (R&D Systems MAB 1463)
(§10) WM115 cells (ECACC, 91061232) cultured in MEM culture media (M2279) supplemented with 2 mM L-glutamine (G7513), 1% non-essential amino acids (M7145), 1% sodium pyruvate (S8636) and 10% FBS (F0804)
(§11) Cell treatment: 1×10^5 WM115 cells or 5×10^4 LNCaP cells were seeded into each well of a 96 well poly-D-Lysine coated tissue culture plate and incubated overnight at 37° C.+5% CO2. Media was removed from cells and replaced with assay buffer consisting of the full culture media described above but with 0.1% FBS instead of 10% FBS. Only WM115 cells were stimulated at 37° C.+5% CO2 for 10 min with 5 μL insulin at a final concentration of 100 nM. Cells were incubated with 5 μL of test compound at a final DMSO concentration of 0.3% for 15 min at 37° C.+5% CO2. Cell lysis was carried out according to kit instructions.
(§12) Assay format (performed in subdued lighting): 4 μL cell lysate and 5 μL reaction buffer were incubated together in the dark at room temperature for 2 h. Reaction buffer was supplemented with a 1/5 dilution of activation buffer, a 1/50 dilution of acceptor beads and in the case of the custom kits, antibodies were added at dilutions of 1/20,000 for Akt2 and 1/2,000 for Akt3.
(§13) 2 μL dilution buffer, supplemented with a 1/20 dilution of donor beads was added to each well and incubated for a further 2 h. Plates were read with the EnVision® Multilabel Plate Reader and using the AlphaScreen settings. Compound IC50 was determined using a 4-parameter equation.

[4] = target: T4, Akt3 (Homo sapiens, UniProt Q9Y243); assay: Akt activation assay (PDK1-mediated activation, LANCE Ultra crosstide TR-FRET), Akt3; format: biochemical; details: read-out: Biological Assay 1 IC50 (nM) Akt3
T4 construct: unspecified tag, removed (detagged) (cleaved yes); purchased SignalChem and Proteros (Akt3); Merck Millipore (PDK1) 14-452 (PDK1); none given for Akt3
T4 sequence (Q9Y243 whole entry): as above
Procedure: as §1, §2, §3, §4, §5, §6

[5] = target: T5, p-Akt2 in WM115 cells (Homo sapiens, UniProt P31751); assay: Phospho-Akt cellular SureFire assay, p-Akt2 in WM115 cells; format: cell-based; details: insulin stimulated, read-out: Biological Assay 2 IC50 (nM) Akt2 WM115
T5 construct: SureFire assays to detect cellular p-Akt1, p-Akt2 and p-Akt3 levels in WM115 cells (Akt2/3) and LNCaP cells (Akt1); endogenous in cells; host or cells: WM115 (ECACC 91061232), insulin-stimulated
T5 sequence (P31751 whole entry): as the sequence (P31751 whole entry) above
From the text: as §7, §8, §9
Total Akt2 antibody (NEB UK, 5239)
as §10, §11, §12, §13

T1 sequence (P31749 whole entry): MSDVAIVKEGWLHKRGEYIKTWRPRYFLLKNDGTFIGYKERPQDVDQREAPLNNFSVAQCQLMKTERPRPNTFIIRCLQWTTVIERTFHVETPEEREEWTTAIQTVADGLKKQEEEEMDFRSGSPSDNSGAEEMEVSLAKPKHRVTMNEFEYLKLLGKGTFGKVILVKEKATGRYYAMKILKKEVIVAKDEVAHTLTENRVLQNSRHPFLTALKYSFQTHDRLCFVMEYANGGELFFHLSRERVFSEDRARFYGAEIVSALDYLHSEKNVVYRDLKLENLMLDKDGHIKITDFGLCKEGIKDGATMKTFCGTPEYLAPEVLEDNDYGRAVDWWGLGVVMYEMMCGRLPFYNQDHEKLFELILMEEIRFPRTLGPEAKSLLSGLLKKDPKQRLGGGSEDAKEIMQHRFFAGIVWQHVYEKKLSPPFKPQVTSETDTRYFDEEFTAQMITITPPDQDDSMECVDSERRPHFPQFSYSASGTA

Row | SMILES | IC50 [1] [nM] | IC50 [2] [nM] | IC50 [3] [nM] | IC50 [4] [nM] | IC50 [5] [nM]
1 | CC(=O)N(C)[C@H]1CC[C@H](CC(=O)Nc2cnc(-c3ccc(C4(N)CC(F)(F)C4)cc3)c(-c3ccccc3)c2)CC1 [Example 5] | 3900 | 800 | 61 | 110 | 3000
2 | NC1(c2ccc(-c3ncc(NC(=O)C(F)C4CCN(S(=O)(=O)C5CC5)CC4)cc3-c3ccccc3)cc2)CCC1 (centres unmarked) [Example 40, N-(6-(4-(1-aminocyclobutyl)phenyl)-5-phenylpyridin-3-yl)-2-(1-(cyclopropylsulfonyl)piperidin-4-yl)-2-fluoroacetamide] | 9800 | 440 | 220 | 360 | 2900
3 | CC(=O)N(C)[C@H]1CC[C@H](CC(=O)Nc2cc(-c3ccccc3)c(-c3ccc([C@]4(N)C[C@H](F)C4)cc3)nn2)CC1 [Example 46, N-(6-(4-(trans-1-amino-3-fluorocyclobutyl)phenyl)-5-phenylpyridazin-3-yl)-2-(trans-4-(N-methylacetamido)cyclohexyl)acetamide] | 11000 | 440 | 46 | 100 | 2600
4 | CC(=O)N(C(C)C)[C@H]1CC[C@H](CC(=O)Nc2cnc(-c3ccc(C4(N)CCC4)cc3)c(-c3ccccc3)c2)CC1 [Example 49, N-(6-(4-(1-aminocyclobutyl)phenyl)-5-phenylpyridin-3-yl)-2-(trans-4-(N-isopropylacetamido)cyclohexyl)acetamide] | 6900 | 530 | 140 | 280 | 2900
5 | CC(=O)N(C)[C@H]1CC[C@H](CC(=O)Nc2cc(-c3ccccc3F)c(-c3ccc([C@]4(N)C[C@](C)(O)C4)cc3)cn2)CC1 [Example 94, N-(5-(4-(trans-1-amino-3-hydroxy-3-methylcyclobutyl)phenyl)-4-(2-fluorophenyl)pyridin-2-yl)-2-(trans-4-(N-methylacetamido)cyclohexyl)acetamide] | 20000 | 120 | 13 | 11 | 550
6 | CCC(=O)N(C)[C@H]1CC[C@H](CC(=O)Nc2cc(-c3ccccc3F)c(-c3ccc([C@]4(N)C[C@](C)(O)C4)cc3)cn2)CC1 [Example 95, N-(trans-4-(2-((5-(4-(trans-1-amino-3-hydroxy-3-methylcyclobutyl)phenyl)-4-(2-fluorophenyl)pyridin-2-yl)amino)-2-oxoethyl)cyclohexyl)-N-methylpropionamide] | > 22000 | 120 | 17 | 10 | 660
7 | CCN(C(C)=O)[C@H]1CC[C@H](CC(=O)Nc2cc(-c3ccccc3)c(-c3ccc([C@]4(N)C[C@](C)(O)C4)cc3)cn2)CC1 [Example 108, N-(5-(4-(trans-1-amino-3-hydroxy-3-methylcyclobutyl)phenyl)-4-phenylpyridin-2-yl)-2-(trans-4-(N-ethylacetamido)cyclohexyl)acetamide] |  | 220 | 16 | 10 | 670
8 | CN(C(=O)C(F)F)[C@H]1CC[C@H](CC(=O)Nc2cc(-c3ccccc3)c(-c3ccc([C@]4(N)C[C@](C)(O)C4)cc3)cn2)CC1 [Example 109, N-(trans-4-(2-((5-(4-(trans-1-amino-3-hydroxy-3-methylcyclobutyl)phenyl)-4-phenylpyridin-2-yl)amino)-2-oxoethyl)cyclohexyl)-2,2-difluoro-N-methylacetamide] | > 30000 | 220 | 13 | 12 | 780
9 | CC(=O)N(C)[C@H]1CC[C@H](CC(=O)Nc2cc(-c3ccccc3)c(-c3ccc([C@]4(N)C[C@](C)(O)C4)c(F)c3)cn2)CC1 [Example 111, N-(5-(4-(trans-1-amino-3-hydroxy-3-methylcyclobutyl)-3-fluorophenyl)-4-phenylpyridin-2-yl)-2-(trans-4-(N-methylacetamido)cyclohexyl)acetamide] | > 27000 | 1400 | 29 | 68 | 3200
10 | CCC(=O)N(C)[C@H]1CC[C@H](CC(=O)Nc2cc(-c3ccccc3)c(-c3ccc([C@]4(N)C[C@](C)(O)C4)c(F)c3)cn2)CC1 [Example 112, N-(trans-4-(2-((5-(4-(trans-1-amino-3-hydroxy-3-methylcyclobutyl)-3-fluorophenyl)-4-phenylpyridin-2-yl)amino)-2-oxoethyl)cyclohexyl)-N-methylpropionamide] | > 30000 | 1300 | 31 | 55 | 3400
11 | CCC(=O)N(CC)[C@H]1CC[C@H](CC(=O)Nc2cc(-c3ccccc3)c(-c3ccc([C@]4(N)C[C@](C)(O)C4)cc3)cn2)CC1 [Example 115, N-(trans-4-(2-((5-(4-(trans-1-amino-3-hydroxy-3-methylcyclobutyl)phenyl)-4-phenylpyridin-2-yl)amino)-2-oxoethyl)cyclohexyl)-N-ethylpropionamide] | > 30000 | 330 | 15 | 24 | 1000
12 | COC(=O)N(C)C1CCC(CC(=O)Nc2cnc(-c3ccc(C4(N)CC(F)C4)cc3)c(-c3ccsc3)c2)CC1 (stereo not drawn) [Example A66, Methyl (trans-4-(2-((6-(4-(trans-1-amino-3-fluorocyclobutyl)phenyl)-5-(thiophen-3-yl)pyridin-3-yl)amino)-2-oxoethyl)cyclohexyl)(methyl)carbamate] |  | 1100 | 420 | 44 | 10000
13 | CC(=O)N(C)[C@H]1CC[C@H](CC(=O)Nc2cc(-c3ccsc3)c(-c3ccc(C4(N)CCC4)cc3)nn2)CC1 [Example A97, N-(6-(4-(1-aminocyclobutyl)phenyl)-5-(thiophen-3-yl)pyridazin-3-yl)-2-(trans-4-(N-methylacetamido)cyclohexyl)acetamide] |  | 430 | 41 | 9 | 3200

Reference: patent US10336702B2, “Pharmaceutically active compounds” (BERGENBIO ASA, priority 2015, dated 2019)
